According to patent US12428406B2 (PMV Pharmaceuticals, Inc., priority 2019, dated 2025):

Each compound was assayed against T1, p53 Y220C (Homo sapiens, UniProt P04637, Y220C) (assay: In vitro DNA binding activity assay (HTRF / TR-FRET): stabilization of p53 Y220C and increase of its DNA binding activity). Conditions: recombinant His-tagged p53 Y220C DNA binding domain (aa 94-312), biotin-labeled consensus DNA, incubated at 27° C. or 29° C. for 60 min.
T1 construct: The recombinant protein was a truncation mutant containing only amino acids 94-312 of p53; made in house; host or cells: E. coli
T1 sequence (P04637 94-312, change not shown): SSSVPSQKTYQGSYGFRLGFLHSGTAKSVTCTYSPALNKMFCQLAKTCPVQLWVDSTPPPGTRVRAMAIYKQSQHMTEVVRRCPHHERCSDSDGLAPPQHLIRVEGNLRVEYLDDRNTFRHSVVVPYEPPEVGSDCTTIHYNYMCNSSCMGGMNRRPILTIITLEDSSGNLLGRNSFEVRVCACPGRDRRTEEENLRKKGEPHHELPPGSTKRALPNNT
Type: biochemical
In short: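 E. coli His-p53 Y220C + biotin consensus DNA; anti-His-APC/SA-Eu TR-FRET. SC150 vs no-compound.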

SC150 (concentration of the compound required to increase the DNA binding activity by 50%) | SMILES
+ (+ = 0 μM ≤ SC150 < 0.05 μM) | COc1cc(S(C)(=O)=O)ccc1NCC#Cc1cc2c(NC3CCN(C4CCOCC4)C3)cccc2n1CC(F)(F)F (stereo not shown) [Compound 458A, 2-{3-[(4-methanesulfonyl-2-methoxyphenyl)amino]prop-1-yn-1-yl}-N-[1-(oxan-4-yl)pyrrolidin-3-yl]-1-(2,2,2-trifluoroethyl)-1H-indol-4-amine]
+ (+ = 0 μM ≤ SC150 < 0.05 μM) | COc1cc(S(=O)(=O)N2CCOCC2)ccc1NCC#Cc1cc2c(NC3CCNCC3)cccc2n1CC(F)(F)F [Compound 459A, 2-(3-{[2-methoxy-4-(morpholine-4-sulfonyl)phenyl]amino}prop-1-yn-1-yl)-N-(piperidin-4-yl)-1-(2,2,2-trifluoroethyl)-1H-indol-4-amine]
+ (+ = 0 μM ≤ SC150 < 0.05 μM) | COc1cc(S(=O)(=O)N(C)C)ccc1NCC#Cc1cc2c(NC3CCNCC3)cccc2n1CC(F)(F)F [Compound 460A]
+ (+ = 0 μM ≤ SC150 < 0.05 μM) | CS(=O)(=O)c1ccc(NCC#Cc2cc3c(NC4CCNCC4)cccc3n2CC(F)(F)F)c(OCC#N)c1 [Compound 461A, 2-{5-methanesulfonyl-2-[(3-{4-[(piperidin-4-yl)amino]-1-(2,2,2-trifluoroethyl)-1H-indol-2-yl}prop-2-yn-1-yl)amino]phenoxy}acetonitrile]
+ (+ = 0 μM ≤ SC150 < 0.05 μM) | COc1cc(S(C)(=O)=O)ccc1NCC#Cc1cc2c(N[C@@H]3CCCNC3)cccc2n1CC(F)(F)F [Compound 463A, 2-{3-[(4-methanesulfonyl-2-methoxyphenyl)amino]prop-1-yn-1-yl}-N-[(3R)-piperidin-3-yl]-1-(2,2,2-trifluoroethyl)-1H-indol-4-amine]
+ (+ = 0 μM ≤ SC150 < 0.05 μM) | COc1cc(S(N)(=O)=O)ccc1NCC#Cc1cc2c(N[C@H]3CCN[C@@H](C)C3)cccc2n1CC(F)(F)F [Compound 464A, 3-methoxy-4-{[3-(4-{[(2S,4S)-2-methylpiperidin-4-yl]amino}-1-(2,2,2-trifluoroethyl)-1H-indol-2-yl)prop-2-yn-1-yl]amino} benzene-1-sulfonamide]

Further lines, the compound ahead of its results:

SMILES | SC150 (concentration of the compound required to increase the DNA binding activity by 50%)
COc1cc(S(C)(=O)=O)ccc1NCC#Cc1cc2c(N[C@@H]3CCC[C@H](n4nn[nH]c4=O)C3)cccc2n1CC(F)(F)F [Compound 448A, 1-[(1S,3R)-3-[(2-{3-[(4-methanesulfonyl-2-methoxyphenyl)amino]prop-1-yn-1-yl}-1-(2,2,2-trifluoroethyl)-1H-indol-4-yl)amino]cyclo-hexyl]-4,5-dihydro-1H-1,2,3,4-tetrazol-5-one] | ++ (++ = 0.05 μM ≤ SC150 < 0.1 μM)
COCC(O)CN1CCC(Nc2cccc3c2cc(C#CCNc2ccc(S(C)(=O)=O)cc2OC)n3CC(F)(F)F)C1 (stereo not shown) [Compound 455A, 1-{3-[(2-{3-{(4-methanesulfonyl-2-methoxyphenyl)amino]prop-1-yn-1-yl}-1-(2,2,2-trifluoroethyl)-1H-indol-4-yl)amino]pyrrolidin-1-yl}-3-methoxypropan-2-ol] | + (+ = 0 μM ≤ SC150 < 0.05 μM)
COCC(O)CN1CCC(Nc2cccc3c2cc(C#CCNC(=O)c2ccccc2)n3CC(F)(F)F)C1 (stereo not shown) [Compound 456A, N-[3-(4-{[1-(2-hydroxy-3-methoxypropyl)pyrrolidin-3-yl]amino}-1-(2,2,2-trifluoroethyl)-1H-indol-2-yl)prop-2-yn-1-yl]benzamide] | ++++ (++++ = 0.2 μM ≤ SC150 < 1 μM)
COCC(O)CN1CCC(Nc2cccc3c2cc(C#CCNc2ccc(S(C)(=O)=O)cc2)n3CC(F)(F)F)C1 (stereo not drawn) [Compound 457A, l-{3-[(2-{3-[(4-methanesulfonylphenyl)amino]prop-1-yn-1-yl}-1-(2,2,2-trifluoroethyl)-1H-indol-4-yl)amino]pyrrolidin-1-yl}-3-methoxypropan-2-ol] | ++ (++ = 0.05 μM ≤ SC150 < 0.1 μM)
